These molecules were tested against T1, human CH24H (Homo sapiens, UniProt Q9Y6A2) (assay: Measurement of CH24H inhibitory activity (24-HC produced from [14C] cholesterol by human CH24H lysate)). Conditions: 1 μM test compound, [14C] cholesterol 15 μM, 37° C. for 5 hr, read-out: Inhibitory Rate in 1 μM (%).
T1 construct: Using Full-Length Mammalian Gene Collection No. 4819975 (Invitrogen) as a template; made in house; host or cells: FreeStyle 293-F cells, transient transfection with pcDNA3.1(+)/hCH24H; lysate supernatant, not purified
T1 sequence (Q9Y6A2 whole entry): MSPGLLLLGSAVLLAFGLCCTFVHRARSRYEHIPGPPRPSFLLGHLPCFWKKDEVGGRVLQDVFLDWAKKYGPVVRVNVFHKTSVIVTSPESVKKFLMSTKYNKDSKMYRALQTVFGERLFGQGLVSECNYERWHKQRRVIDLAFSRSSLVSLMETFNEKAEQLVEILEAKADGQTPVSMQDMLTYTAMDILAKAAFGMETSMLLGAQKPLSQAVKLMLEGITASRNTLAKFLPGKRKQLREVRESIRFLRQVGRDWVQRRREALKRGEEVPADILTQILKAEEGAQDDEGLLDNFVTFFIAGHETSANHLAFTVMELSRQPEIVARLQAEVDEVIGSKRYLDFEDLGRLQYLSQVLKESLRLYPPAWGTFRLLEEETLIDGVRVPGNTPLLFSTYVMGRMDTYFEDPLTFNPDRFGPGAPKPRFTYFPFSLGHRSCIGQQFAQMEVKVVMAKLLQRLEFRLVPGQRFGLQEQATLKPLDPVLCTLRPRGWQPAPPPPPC
Type: biochemical
Description: The expression of human CH24H was performed using FreeStyle 293 Expression System (Invitrogen). […] After transfection, the cells were cultured at 37° C., 8% CO2 with shaking at 125 rpm for 2 days. The cells were collected by centrifugation, and suspended in a suspension buffer (100 mM potassium phosphate (pH 7.4), 0.1 mM EDTA, 1 mM DTT, 20% Glycerol). The suspended product was disrupted by a polytron homogenizer (manufactured by Kinematica), and centrifuged at 9000×g for 10 min, and the supernatant was collected. The collected supernatant was cryopreserved (−80° C.) as a human CH24H lysate standard product.
For the measurement of CH24H inhibitory activity, using the human CH24H lysate prepared in Experimental Example 2, the amount of 24-HC produced from cholesterol by catalytic activity of CH24H was measured in the presence of a test compound, and compared with that measured in the absence of the test compound. That is, a test compound solution at various concentrations was mixed with a reaction buffer (50 mM potassium phosphate containing 0.1% BSA and Complete, EDTA-free, pH 7.4) and human CH24H lysate. Then, [^14C] cholesterol (53 mCi/mmol specific activity, 15 μM) was added, and CH24H reaction was performed at 37° C. for 5 hr. After completion of the reaction, a quenching solution consisting of chloroform/methanol/distilled water (2:2:1 v/v) was added, and the resulting 24-HC was extracted by shaking. The extract was applied to silica gel thin layer chromatography (ethyl acetate:toluene=4:6), and the obtained ^14C-24HC fraction was measured with BAS2500 (Fujifilm Corporation).
The inhibitory rate (%) was calculated from the ratio of radioactivity in the presence of a test compound relative to the radioactivity in the absence of the test compound.
CN(C(=O)C1CCN(c2cnccc2-n2cc(Cl)cn2)CC1)C1CC1 [Example 58, 1-(4-(4-chloro-1H-pyrazol-1-yl)pyridin-3-yl)-N-cyclopropyl-N-methylpiperidine-4-carboxamide] was tested, and the inhibition at 1 µM was 96%. For CO[C@H]1CCN(C(=O)C2CCN(c3cnccc3-n3cc(Cl)cn3)CC2)C1 [Example 299, (1-(4-(4-chloro-1H-pyrazol-1-yl)pyridin-3-yl)piperidin-4-yl)((3S)-3-methoxypyrrolidin-1-yl)methanone], the inhibition at 1 µM was 84%. For Cc1cnn(-c2ccncc2N2CCC(C(=O)Nc3ccccc3)CC2)c1 [Example 73, 1-(4-(4-methyl-1H-pyrazol-1-yl)pyridin-3-yl)-N-phenylpiperidine-4-carboxamide], the inhibition at 1 µM was 97%. Cc1cnn(-c2ccncc2N2CCC(C(=O)N3CC[C@@H](F)C3)CC2)c1 [Example 283, ((3R)-3-fluoropyrrolidin-1-yl)(1-(4-(4-methyl-1H-pyrazol-1-yl)pyridin-3-yl)piperidin-4-yl)methanone] was tested, and the inhibition at 1 µM was 85%. Work on CO[C@H]1CCN(C(=O)C2CCN(c3cnccc3-n3cc(C)cn3)CC2)C1 [Example 301, ((3S)-3-methoxypyrrolidin-1-yl)(1-(4-(4-methyl-1H-pyrazol-1-yl)pyridin-3-yl)piperidin-4-yl)methanone] yielded an inhibition at 1 µM of 86%. In the case of CN(C)C(=O)C1CCN(c2cnccc2-c2nc3ccccc3s2)CC1 [Example 21, 1-(4-(1,3-benzothiazol-2-yl)pyridin-3-yl)-N,N-dimethylpiperidine-4-carboxamide], the inhibition at 1 µM is reported as 85%. For O=C(N1CCN(c2cncnc2-c2ccccc2)CC1)N(CCF)Cc1ccccc1 [Example 314, N-benzyl-N-(2-fluoroethyl)-4-(4-phenylpyrimidin-5-yl)piperazine-1-carboxamide], the inhibition at 1 µM was 91%. In the case of O=C(N1CCN(c2cnccc2-c2ccccc2)CC1)N1CCC1c1ccc(F)cc1 (stereo not shown) [Example 190, (2-(4-fluorophenyl)azetidin-1-yl) (4-(4-phenylpyridin-3-yl)piperazin-1-yl)methanone], the inhibition at 1 µM is reported as 87%. CN(C)C(=O)C1CCN(c2cnccc2-n2cc(C#N)cn2)CC1 [Example 83, 1-(4-(4-cyano-1H-pyrazol-1-yl)pyridin-3-yl)-N,N-dimethylpiperidine-4-carboxamide] gave an inhibition at 1 µM of 74%. O=C(C1CC1)N1CCN(c2cncc(F)c2-c2ccccc2)CC1 [Example 165, cyclopropyl(4-(5-fluoro-4-phenylpyridin-3-yl)piperazin-1-yl)methanone] was tested, and the inhibition at 1 µM was 86%. For N#C[C@H]1CCCN1C(=O)N1CCN(c2cncnc2-c2ccc(F)cc2)CC1 [Example 198, (2R)-1-((4-(4-(4-fluorophenyl)pyrimidin-5-yl)piperazin-1-yl)carbonyl)pyrrolidine-2-carbonitrile], the inhibition at 1 µM was 90%. Work on CN(C(=O)C1CCN(c2cncnc2-c2ccc(F)cc2)CC1)[C@H]1CCOC1 [Example 309, 1-(4-(4-fluorophenyl)pyrimidin-5-yl)-N-methyl-N-((3S)-tetrahydrofuran-3-yl)piperidine-4-carboxamide] yielded an inhibition at 1 µM of 85%. Molecule O=C(NC1CCCC1)C1CCN(c2cnccc2-n2cc(Cl)cn2)CC1(F)F (stereo not shown) [Example 38, 1-(4-(4-chloro-1H-pyrazol-1-yl)pyridin-3-yl)-N-cyclopentyl-3,3-difluoropiperidine-4-carboxamide] has an inhibition at 1 µM of 98%. Work on O=C(C1CCN(c2cnccc2-n2cc(Cl)cn2)CC1)N1CC[C@H](F)C1 [Example 284, (1-(4-(4-chloro-1H-pyrazol-1-yl)pyridin-3-yl)piperidin-4-yl)((3S)-3-fluoropyrrolidin-1-yl)methanone] yielded an inhibition at 1 µM of 80%. For CCNC(=O)N1CCN(c2cncnc2-c2ccccc2)CC1 [Example 176, N-ethyl-4-(4-phenylpyrimidin-5-yl)piperazine-1-carboxamide], the inhibition at 1 µM was 82%. In the case of O=C(C1CCN(c2cnccc2-n2cc(C3CC3)cn2)CC1)N1CC(F)C1 [Example 323, (1-(4-(4-cyclopropyl-1H-pyrazol-1-yl)pyridin-3-yl)piperidin-4-yl)(3-fluoroazetidin-1-yl)methanone], the inhibition at 1 µM is reported as 93%. Work on CO[C@@H]1CCN(C(=O)C2CCN(c3cnccc3-n3cc(C)cn3)CC2)C1 [Example 302, ((3R)-3-methoxypyrrolidin-1-yl)(1-(4-(4-methyl-1H-pyrazol-1-yl)pyridin-3-yl)piperidin-4-yl)methanone] yielded an inhibition at 1 µM of 87%. Work on CN(C(=O)C1CCN(c2cnccc2-n2cc(Cl)cn2)CC1)[C@@H]1CCOC1 [Example 308, 1-(4-(4-chloro-1H-pyrazol-1-yl)pyridin-3-yl)-N-methyl-N-((3R)-tetrahydrofuran-3-yl)piperidine-4-carboxamide] yielded an inhibition at 1 µM of 83%. For Cc1cnn(-c2ccncc2N2CCC(C(=O)N(CCF)[C@H]3CCOC3)CC2)c1 [Example 312, N-(2-fluoroethyl)-1-(4-(4-methyl-1H-pyrazol-1-yl)pyridin-3-yl)-N-((3S)-tetrahydrofuran-3-yl)piperidine-4-carboxamide], the inhibition at 1 µM was 71%. In the case of Cc1cnn(-c2ccncc2N2CCC(C(=O)N(C)C3CC3)CC2)c1 [Example 86, N-cyclopropyl-N-methyl-1-(4-(4-methyl-1H-pyrazol-1-yl)pyridin-3-yl)piperidine-4-carboxamide], the inhibition at 1 µM is reported as 98%. CN(C(=O)C1CCN(c2cncnc2-c2ccc(F)cc2)CC1)C1CCOCC1 [Example 288, 1-(4-(4-fluorophenyl)pyrimidin-5-yl)-N-methyl-N-(tetrahydro-2H-pyran-4-yl)piperidine-4-carboxamide] was tested, and the inhibition at 1 µM was 84%. Molecule Cc1cnc(-c2ccncc2N2CCC(C(=O)N(C)C)CC2)o1 [Example 2, N,N-dimethyl-1-(4-(5-methyl-1,3-oxazol-2-yl)pyridin-3-yl)piperidine-4-carboxamide] has an inhibition at 1 µM of 80%. For CN(C(=O)C1CCN(c2cncnc2-c2ccc(F)cc2)CC1)C1CC1 [Example 277, N-cyclopropyl-1-(4-(4-fluorophenyl)pyrimidin-5-yl)-N-methylpiperidine-4-carboxamide], the inhibition at 1 µM was 94%. With CC(C)C1CCCN1C(=O)C1CCN(c2cnccc2-n2cc(Cl)cn2)CC1 (stereo not shown) [Example 29, (1-(4-(4-chloro-1H-pyrazol-1-yl)pyridin-3-yl)piperidin-4-yl)(2-isopropylpyrrolidin-1-yl)methanone] the inhibition at 1 µM was 97%. Molecule O=C(CCn1ncc2ccccc21)N1CCN(c2cnccc2-c2ccccc2)CC1 [Example 183, 3-(1H-indazol-1-yl)-1-(4-(4-phenylpyridin-3-yl)piperazin-1-yl)propan-1-one] has an inhibition at 1 µM of 92%. O=C(C1CCN(c2cncnc2-c2ccc(F)cc2)CC1)N1CC[C@H](F)C1 [Example 286, (1-(4-(4-fluorophenyl)pyrimidin-5-yl)piperidin-4-yl) ((3S)-3-fluoropyrrolidin-1-yl)methanone] gave an inhibition at 1 µM of 83%. NC(=O)[C@@H]1CC(F)(F)CN1C(=O)C1CCN(c2cnccc2-n2cc(Cl)cn2)CC1 [Example 117, 1-((1-(4-(4-chloro-1H-pyrazol-1-yl)pyridin-3-yl)piperidin-4-yl)carbonyl)-4,4-difluoro-L-prolinamide] was tested, and the inhibition at 1 µM was 85%. Cc1cnc(-c2ccncc2N2CCC(C(=O)N3CC[C@H](F)C3)CC2)s1 [Example 316, ((3S)-3-fluoropyrrolidin-1-yl)(1-(4-(5-methyl-1,3-thiazol-2-yl)pyridin-3-yl)piperidin-4-yl)methanone] showed an inhibition at 1 µM of 94%. CC1CCCN1C(=O)C1CCN(c2cnccc2-n2cc(Cl)cn2)CC1 (stereo not shown) [Example 25, (1-(4-(4-chloro-1H-pyrazol-1-yl)pyridin-3-yl)piperidin-4-yl)(2-methylpyrrolidin-1-yl)methanone] gave an inhibition at 1 µM of 97%. Work on O=C(C1CCN(c2cncnc2-c2ccc(F)cc2)CC1)N1CC[C@@H](F)C1 [Example 287, (1-(4-(4-fluorophenyl)pyrimidin-5-yl)piperidin-4-yl)((3R)-3-fluoropyrrolidin-1-yl)methanone] yielded an inhibition at 1 µM of 89%. In the case of Cc1cnc(-c2ccncc2N2CCC(C(=O)N3CC(F)C3)CC2)s1 [Example 317, (3-fluoroazetidin-1-yl) (1-(4-(5-methyl-1,3-thiazol-2-yl)pyridin-3-yl)piperidin-4-yl)methanone], the inhibition at 1 µM is reported as 95%. Molecule CN(Cc1ccccc1)C(=O)N1CCN(c2cncnc2-c2ccccc2)CC1 [Example 298, N-benzyl-N-methyl-4-(4-phenylpyrimidin-5-yl)piperazine-1-carboxamide] has an inhibition at 1 µM of 79%. Cc1cnn(-c2ccncc2N2CCC(C(=O)N(CCF)C3CCOCC3)CC2)c1 [Example 311, N-(2-fluoroethyl)-1-(4-(4-methyl-1H-pyrazol-1-yl)pyridin-3-yl)-N-(tetrahydro-2H-pyran-4-yl)piperidine-4-carboxamide] gave an inhibition at 1 µM of 79%. In the case of O=C(C1CCN(c2cnccc2-n2cc(Cl)cn2)CC1)N1CCS(=O)(=O)CC1 [Example 30, (1-(4-(4-chloro-1H-pyrazol-1-yl)pyridin-3-yl)piperidin-4-yl)(1,1-dioxidothiomorpholin-4-yl)methanone], the inhibition at 1 µM is reported as 97%.

Source: patent US9643957B2, “Heterocyclic compounds having cholesterol 24-hydroxylase activity” (TAKEDA PHARMACEUTICAL COMPANY LIMITED, priority 2012, dated 2017)
